Laboratory results: ChEMBL document CHEMBL1770124, “Synthesis and in vitro evaluation of [18F]fluoroethyl triazole labelled [Tyr3]octreotate analogues using click chemistry” (Bioorg Med Chem Lett, 2011)
Where a SMILES comes first, the peptide text is derived from it. Bridges are numbered along the chain shown (N, C = ends). [ ]: non-standard residue; d: D form. The star is where a group is joined. Threoninol(2S,3R) = C[C@@H](O)[C@H](CO)N*

Columns and labels:
[1] = Displacement of [111In]-DTPA-octreotide from somatostatin receptor in rat AR42J cells; format: cell-based; conditions: ar-42j
[2] = Partition coefficient, log D of the compound; format: physicochemical; conditions: octanol/water
[3] = Displacement of [125I]-somatostatin-14 from somatostatin receptor in rat AR42J cells; format: cell-based; conditions: ar-42j

## C#CCCC(=O)N[C@H](Cc1ccccc1)C(=O)N[C@H]1CSSC[C@@H](C(=O)N[C@H](C(=O)O)[C@@H](C)O)NC(=O)[C@H]([C@@H](C)O)NC(=O)[C@H](CCCCN)NC(=O)[C@@H](Cc2c[nH]c3ccccc23)NC(=O)[C@H](Cc2ccc(O)cc2)NC1=O
[1]
  IC50: 0.0018 µM

## C[C@@H](O)[C@H](NC(=O)[C@@H]1CSSC[C@H](NC(=O)[C@@H](Cc2ccccc2)NC(=O)CNC(=O)c2cn(CC[18F])nn2)C(=O)N[C@@H](Cc2ccc(O)cc2)C(=O)N[C@H](Cc2c[nH]c3ccccc23)C(=O)N[C@@H](CCCCN)C(=O)N[C@@H]([C@@H](C)O)C(=O)N1)C(=O)O
[1]
  IC50: 0.004 µM
[2]
  logD: -1.83

## C[C@@H](O)[C@H](CO)NC(=O)[C@@H]1CSSC[C@H](NC(=O)[C@H](N)Cc2ccccc2)C(=O)N[C@@H](Cc2ccccc2)C(=O)N[C@H](Cc2c[nH]c3ccccc23)C(=O)N[C@@H](CCCCN)C(=O)N[C@@H]([C@@H](C)O)C(=O)N1 (H-[dF]CF[dW]KTC-{Threoninol(2S,3R)}; disulfide 2-7)
[3]
  IC50: 0.0147 µM

## C[C@@H](O)[C@@H]1NC(=O)[C@@H](NC(=O)[C@@H](Cc2cc3ccccc3[nH]2)NC(=O)CNC(=O)CCNC(=O)c2cn(CC[18F])nn2)CSSC[C@@H](C(=O)N[C@@H](CCCCN)C(=O)O)NC(=O)[C@H](Cc2ccc(O)cc2)NC(=O)[C@H]([C@@H](C)O)NC(=O)[C@@H](Cc2ccccc2)NC1=O
[1]
  IC50: > 10000 µM
[2]
  logD: -1.14

## C#CC(=O)NCC(=O)NCCOCCOCCOCCOCCOCCOCCC(=O)N[C@H](Cc1ccccc1)C(=O)N[C@H]1CSSC[C@@H](C(=O)N[C@H](C(=O)O)[C@@H](C)O)NC(=O)[C@H]([C@@H](C)O)NC(=O)[C@H](CCCCN)NC(=O)[C@@H](Cc2c[nH]c3ccccc23)NC(=O)[C@H](Cc2ccc(O)cc2)NC1=O
[1]
  IC50: 0.00523 µM

## C[C@@H](O)[C@H](NC(=O)[C@@H]1CSSC[C@H](NC(=O)[C@@H](Cc2ccccc2)NC(=O)CCc2cn(CC[18F])nn2)C(=O)N[C@@H](Cc2ccc(O)cc2)C(=O)N[C@H](Cc2c[nH]c3ccccc23)C(=O)N[C@@H](CCCCN)C(=O)N[C@@H]([C@@H](C)O)C(=O)N1)C(=O)O
[1]
  IC50: 0.0029 µM
[2]
  logD: -1.5

## C#CC(=O)NCC(=O)N[C@H](Cc1ccccc1)C(=O)N[C@H]1CSSC[C@@H](C(=O)N[C@H](C(=O)O)[C@@H](C)O)NC(=O)[C@H]([C@@H](C)O)NC(=O)[C@H](CCCCN)NC(=O)[C@@H](Cc2c[nH]c3ccccc23)NC(=O)[C@H](Cc2ccc(O)cc2)NC1=O
[1]
  IC50: 0.0014 µM

## C[C@@H](O)[C@H](NC(=O)[C@@H]1CSSC[C@H](NC(=O)[C@@H](Cc2ccccc2)NC(=O)CCOCCOCCOCCOCCOCCOCCNC(=O)CCc2cn(CC[18F])nn2)C(=O)N[C@@H](Cc2ccc(O)cc2)C(=O)N[C@H](Cc2c[nH]c3ccccc23)C(=O)N[C@@H](CCCCN)C(=O)N[C@@H]([C@@H](C)O)C(=O)N1)C(=O)O
[1]
  IC50: 0.0132 µM
[2]
  logD: -2.77

## C[C@@H](O)[C@H](NC(=O)[C@@H]1CSSC[C@H](NC(=O)[C@@H](Cc2ccccc2)NC(=O)CCOCCOCCOCCOCCOCCOCCNC(=O)CNC(=O)c2cn(CC[18F])nn2)C(=O)N[C@@H](Cc2ccc(O)cc2)C(=O)N[C@H](Cc2c[nH]c3ccccc23)C(=O)N[C@@H](CCCCN)C(=O)N[C@@H]([C@@H](C)O)C(=O)N1)C(=O)O
[1]
  IC50: 0.0108 µM
[2]
  logD: -2.68

## C#CC(=O)NCCC(=O)NCC(=O)N[C@H](Cc1ccccc1)C(=O)N[C@H]1CSSC[C@@H](C(=O)N[C@H](C(=O)O)[C@@H](C)O)NC(=O)[C@H]([C@@H](C)O)NC(=O)[C@H](CCCCN)NC(=O)[C@@H](Cc2c[nH]c3ccccc23)NC(=O)[C@H](Cc2ccc(O)cc2)NC1=O
[1]
  IC50: 0.001 µM

## C#CCCC(=O)NCCOCCOCCOCCOCCOCCOCCC(=O)N[C@H](Cc1ccccc1)C(=O)N[C@H]1CSSC[C@@H](C(=O)N[C@H](C(=O)O)[C@@H](C)O)NC(=O)[C@H]([C@@H](C)O)NC(=O)[C@H](CCCCN)NC(=O)[C@@H](Cc2c[nH]c3ccccc23)NC(=O)[C@H](Cc2ccc(O)cc2)NC1=O
[1]
  IC50: 0.0051 µM
